# Laboratory results reported in patent publication US7265152B2 (ViroPharma Incorporated, priority 2002, dated 2007).
# pEC50, pIC50: −log10 of the molar value. Where two headings read alike, the source gives them in different places.
# Tests used:
# HCV NS5B = biological target: T1, HCV NS5B (Hepatitis C virus genotype 1b, UniProt Q9WMX2); test: Inhibition of viral RNA-dependent RNA polymerase (RdRp), in vitro biochemical assay; set-up: species or system HCV genotype 1b virus (BB7); settings: read-out: HCV pol-BB7 IC50
# T1 construct: fusion protein, of which the carboxyl terminal 21 amino acids were removed to enhance its solubility; His tag (GSHHHHHH); made in house; host or cells: E. coli
# Method in brief: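 Purified recombinant NS5B from a genotype 1b consensus (BB7), His-tagged, E. coli-expressed, with the C-terminal 21 residues deleted. Inhibition of RdRp activity in vitro was measured, and IC50 is the concentration giving 50% inhibition.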
# [1] = tested on: HCV replicon (BB7 sequence) in Huh-7-Clone A cells; test: HCV replicon assay: ELISA of NS5A protein in replicon-containing cells (Inhibition of Viral RNA Replication); format: cell-based; settings: Hepatitis C virus, read-out: Replicon
# Method in brief: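 Huh-7-Clone A cells carrying subgenomic BB7 HCV replicon (G418-selectable) incubated 72 h with compound. NS5A protein quantified by cell ELISA: glutaraldehyde fixation, anti-NS5A monoclonal plus HRP secondary, TMB read at OD 650 nm. EC50 derived from 8-point serial dilution dose curve.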
# [2] = HCV NS5B RdRp, BB7, reported as range class
# [3] = purified His-tagged NS5B (BB7), carboxyl terminal 21 amino acids removed
# [4] = Huh-7-Clone A, NS5A ELISA, 72-hour incubation, ranges of EC50
# [5] = HCV NS5B RdRp, BB7, class symbols A-D
# [6] = HCV replicon assay, ranges of EC50
# [7] = HCV NS5B polymerase, BB7 (genotype 1b), values given as range classes A-D
# [8] = HCV replicon assay, ranges of 50% effective concentration (EC50)
# [9] = ranges of EC50 in HCV replicon assay
# [10] = HCV NS5B RdRp, BB7, activity class
structure (smiles),measurement,setting,value
"CNC(=O)c1c(-c2ccc(F)cc2)oc2cc(CO)c(OC(C)C)cc12 [Example 224, 2-(4-Fluoro-phenyl)-6-hydroxymethyl-5-isopropoxy-benzofuran-3-carboxylic acid methylamide]",pIC50,HCV NS5B; [2],≥ 6.30
same,pEC50,"[1]; HCV replicon, range of EC50",> 5.00
"CNC(=O)c1c(-c2ccccc2)oc2ccc(OCc3ccccc3-c3ccccc3)cc12 [Example 53, 5-(Biphenyl-2-ylmethoxy)-2-phenyl-benzofuran-3-carboxylic acid methylamide]",pIC50,HCV NS5B; [3],4.52 to 5.30
same,pEC50,[1]; [4],> 4.52
"CNC(=O)c1c(-c2ccc(F)cc2)oc2cc(N(CC(C)O)S(C)(=O)=O)c(OC(C)C)cc12 (stereo not shown) [Example 253, 2-(4-Fluoro-phenyl)-6-[(2-hydroxy-propyl)-methanesulfonyl-amino]-5-isopropoxy-benzofuran-3-carboxylic acid methylamide]",pIC50,HCV NS5B; [5],≥ 6.30
same,pEC50,[1]; [6],> 6.00
"CNC(=O)c1c(-c2ccc(F)cc2)oc2cc(N(Cc3ccc(OC)cc3)S(C)(=O)=O)c(OCc3ccc(OC)cc3)cc12 [Example 31, 2-(4-Fluoro-phenyl)-6-[methanesulfonyl-(4-methoxy-benzyl)-amino]-5-(4-methoxy-benzyloxy)-benzofuran-3-carboxylic acid methylamide]",pIC50,HCV NS5B; [3],≥ 6.30
same,pEC50,[1]; [4],> 6.00
"CNC(=O)c1c(-c2ccccc2)oc2ccc(C#N)cc12 [Example 26, 5-Cyano-2-phenyl-benzofuran-3-carboxylic acid methylamide]",pIC50,HCV NS5B; [3],4.52 to 5.30
same,pEC50,[1]; [4],> 4.52
"CNC(=O)c1c(-c2ccc(F)cc2)oc2cc(C(C)N(C)S(C)(=O)=O)c(OC)cc12 (stereo not shown) [Example 303, 2-(4-Fluoro-phenyl)-6-[1-(methanesulfonyl-methyl-amino)-ethyl]-5-methoxy-benzofuran-3-carboxylic acid methylamide]",pIC50,HCV NS5B; [5],≥ 6.30
same,pEC50,[1]; [6],> 6.00
"CCCOc1cc2c(C(=O)NC)c(-c3ccc(F)cc3)oc2cc1N(COC)S(C)(=O)=O [Example 443, 2-(4-Fluoro-phenyl)-6-(methanesulfonyl-methoxymethyl-amino)-5-propoxy-benzofuran-3-carboxylic acid methylamide]",pIC50,"HCV NS5B; HCV NS5B RdRp, BB7 (genotype 1b), reported as class symbols",≥ 6.30
same,pEC50,[1]; [6],> 6.00
"CNC(=O)c1c(-c2ccc(F)cc2)oc2cc(NS(C)(=O)=O)c(C3CC3)cc12 [Example 418, 5-Cyclopropyl-2-(4-fluoro-phenyl)-6-methanesulfonylamino-benzofuran-3-carboxylic acid methylamide]",pIC50,HCV NS5B; [7],≥ 6.30
same,pEC50,[1]; [8],> 6.00
"CNC(=O)c1c(-c2ccc(F)cc2)oc2cc(N(CC(O)c3ccc(F)cc3)S(C)(=O)=O)c(OC(C)C)cc12 (stereo not shown) [Example 322, 2-(4-Fluoro-phenyl)-6-{[2-(4-fluoro-phenyl)-2-hydroxy-ethyl]-methanesulfonyl-amino}-5-isopropoxy-benzofuran-3-carboxylic acid methylamide]",pIC50,HCV NS5B; [5],≥ 6.30
same,pEC50,[1]; [6],> 6.00
"CNC(=O)c1c(-c2ccc(F)cc2)oc2cc(N(C)S(C)(=O)=O)c(OCc3ccc4c(c3)OC(C)(C)OC4=O)cc12 [Example 302, 5-(2,2-Dimethyl-4-oxo-4H-benzo[1,3]dioxin-7-ylmethoxy)-2-(4-fluoro-phenyl)-6-(methanesulfonyl-methyl-amino)-benzofuran-3-carboxylic acid methylamide]",pIC50,HCV NS5B; [5],≥ 6.30
same,pEC50,[1]; [6],> 6.00
"CNC(=O)c1c(-c2ccc(F)cc2)oc2cc(-c3c(C)noc3C)c(OCc3nnnn3C)cc12 [Example 427, 6-(3,5-Dimethyl-isoxazol-4-yl)-2-(4-fluoro-phenyl)-5-(1-methyl-1H-tetrazol-5-ylmethoxy)-benzofuran-3-carboxylic acid methylamide]",pIC50,HCV NS5B; [7],≥ 6.30
same,pEC50,[1]; [8],> 6.00
"CCN(c1cc2oc(-c3ccc(F)cc3)c(C(=O)NC)c2cc1O)S(C)(=O)=O [Example 297, 6-(Ethyl-methanesulfonyl-amino)-2-(4-fluoro-phenyl)-5-hydroxy-benzofuran-3-carboxylic acid methylamide]",pIC50,HCV NS5B; [5],≥ 6.30
same,pEC50,[1]; [6],> 5.00
"CNC(=O)c1c(-c2ccc(F)cc2)oc2cc(-c3ccc[nH]3)c(OC(C)C)cc12 [Example 220, 2-(4-Fluoro-phenyl)-5-isopropoxy-6-(1H-pyrrol-2-yl)-benzofuran-3-carboxylic acid methylamide]",pIC50,HCV NS5B; [2],≥ 6.30
same,pEC50,"[1]; HCV replicon, range of EC50",> 5.00
"CNC(=O)c1c(-c2ccc(F)cc2)oc2cc(C(C)O)c(OC(C)C)cc12 (stereo not shown) [Example 222, 2-(4-Fluoro-phenyl)-6-(1-hydroxy-ethyl)-5-isopropoxy-benzofuran-3-carboxylic acid methylamide]",pIC50,HCV NS5B; [2],≥ 6.30
same,pEC50,"[1]; HCV replicon, range of EC50",> 6.00
"CNC(=O)c1c(-c2ccc(F)cc2)oc2cc(N(C(C)C)S(C)(=O)=O)c(OC(C)C)cc12 [Example 136, 2-(4-Fluoro-phenyl)-5-isopropoxy-6-(isopropyl-methanesulfonyl-amino)-benzofuran-3-carboxylic acid methylamide]",pIC50,"HCV NS5B; HCV NS5B RdRp, BB7 genotype 1b",≥ 6.30
same,pEC50,[1]; [9],> 6.00
"CNC(=O)c1c(-c2ccc(F)cc2)oc2cc(-c3c(C)nn(C)c3C)c(OC(C)C)cc12 [Example 264, 2-(4-Fluoro-phenyl)-5-isopropoxy-6-(1,3,5-trimethyl-1H-pyrazol-4-yl)-benzofuran-3-carboxylic acid methylamide]",pIC50,HCV NS5B; [5],5.30 to 6.30
same,pEC50,[1]; [6],> 5.00
"CNC(=O)c1c(-c2ccc(F)cc2)oc2cc(N(Cc3csc(C)n3)S(C)(=O)=O)c(OC(C)C)cc12 [Example 271, 2-(4-Fluoro-phenyl)-5-isopropoxy-6-[methanesulfonyl-(2-methyl-thiazol-4-ylmethyl)-amino]-benzofuran-3-carboxylic acid methylamide]",pIC50,HCV NS5B; [5],≥ 6.30
same,pEC50,[1]; [6],> 5.00
"C=Cc1cc2oc(-c3ccc(F)cc3)c(C(=O)NC)c2cc1OC(C)C [Example 157, 2-(4-Fluoro-phenyl)-5-isopropoxy-6-vinyl-benzofuran-3-carboxylic acid methylamide]",pIC50,"HCV NS5B; HCV NS5B RdRp, BB7 genotype 1b",≥ 6.30
same,pEC50,[1]; [9],> 5.00
"CNC(=O)c1c(-c2ccc(F)cc2)oc2cc(-c3cc(C)no3)c(OC(C)C)cc12 [Example 233, 2-(4-Fluoro-phenyl)-5-isopropoxy-6-(3-methyl-isoxazol-5-yl)-benzofuran-3-carboxylic acid methylamide]",pIC50,HCV NS5B; [2],≥ 6.30
same,pEC50,"[1]; HCV replicon, range of EC50",> 4.52
"CNC(=O)c1c(-c2ccc(F)cc2)oc2cc(N(C)S(C)(=O)=O)c(OCc3nnc(N)[nH]3)cc12 [Example 402, 5-(5-Amino-4H-[1,2,4]triazol-3-ylmethoxy)-2-(4-fluoro-phenyl)-6-(methanesulfonyl-methyl-amino)-benzofuran-3-carboxylic acid methylamide]",pIC50,HCV NS5B; [7],≥ 6.30
same,pEC50,[1]; [8],> 6.00
"CNC(=O)c1c(-c2ccc(F)cc2)oc2cc(N(C)S(C)(=O)=O)c(OCC(C)=O)cc12 [Example 369, 2-(4-Fluoro-phenyl)-6-(methanesulfonyl-methyl-amino)-5-(2-oxo-propoxy)-benzofuran-3-carboxylic acid methylamide]",pIC50,HCV NS5B; [10],≥ 6.30
same,pEC50,[1]; [6],> 6.00
"CNC(=O)c1c(-c2ccc(F)cc2)oc2cc(NS(C)(=O)=O)c(F)cc12 [Example 332, 5-Fluoro-2-(4-fluoro-phenyl)-6-methanesulfonylamino-benzofuran-3-carboxylic acid methylamide]",pIC50,HCV NS5B; [10],5.30 to 6.30
same,pEC50,[1]; [6],> 5.00
"CNC(=O)c1c(-c2ccc(F)cc2)oc2cc(Nc3ccncc3)c(OC(C)C)cc12 [Example 131, 2-(4-Fluoro-phenyl)-5-isopropoxy-6-(pyridin-4-ylamino)-benzofuran-3-carboxylic acid methylamide]",pIC50,"HCV NS5B; HCV NS5B RdRp, BB7 genotype 1b",5.30 to 6.30
same,pEC50,[1]; [9],> 4.52
